For one assay, the target named is HLA-B7.2 (Homo sapiens, UniProt P01889). Briefly: HLA-B7 peptide binding affinity assay.
The test system of assay [1] is epitope-specific TMr+CD8+ T cells. To be noted: median over 7 HLA-A2+ new-onset T1D patients; cited from earlier work.

Residues, ends and D or L forms follow the SMILES beside them.

Chain of HLA-B7.2 (P01889 25-299 limits assumed): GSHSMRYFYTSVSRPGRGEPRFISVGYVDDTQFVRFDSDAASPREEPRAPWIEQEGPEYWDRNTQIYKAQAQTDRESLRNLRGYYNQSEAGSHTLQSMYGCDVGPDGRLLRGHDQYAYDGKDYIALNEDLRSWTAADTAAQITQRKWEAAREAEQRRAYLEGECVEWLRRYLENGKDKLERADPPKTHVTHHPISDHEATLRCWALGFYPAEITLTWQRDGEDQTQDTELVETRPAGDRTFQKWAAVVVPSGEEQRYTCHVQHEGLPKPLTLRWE
Chain of HLA-B7.2 (P61769 21-119 partner): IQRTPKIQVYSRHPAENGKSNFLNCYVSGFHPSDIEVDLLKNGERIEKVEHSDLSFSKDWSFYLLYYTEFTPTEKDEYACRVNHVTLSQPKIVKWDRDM

As usually defined, the Kd is the free concentration of one partner at which half of the binding sites on the other are occupied at equilibrium, for simple one-to-one binding. High values mean weaker binding, low ones tighter binding. As to `CC(C)C[C@H](NC(=O)[C@H](C)NC(=O)[C@H](CC(C)C)NC(=O)[C@H](CC(C)C)NC(=O)[C@H](C)NC(=O)[C@H](CC(C)C)NC(=O)[C@H](CC(C)C)NC(=O)[C@@H]1CCCN1C(=O)[C@@H](N)CC(C)C)C(=O)O` [PPI8–16] (H-LPLLALLAL-OH), on HLA-B7.2, the Kd was determined as 1090 nM.

`CC[C@H](C)[C@H](NC(=O)[C@@H](NC(=O)[C@@H]1CCCN1C(=O)[C@H](C)N)C(C)C)C(=O)N[C@@H](CCCCN)C(=O)N[C@@H](C)C(=O)N[C@@H](CCCNC(=N)N)C(=O)N[C@@H](CCSC)C(=O)N[C@@H](CCSC)C(=O)O` [GAD530–538] (H-APVIKARMM-OH) registered a dissociation constant (Kd) at HLA-B7.2 of 61 nM.

“PPI6–14: HLA-A2–restricted preproinsulin epitope used for comparison (RLLPLLALL; UniProt P01308 6-14, looked up, fragment)”: in assay [1], the “percent of epitope-specific T cells expressing IFNG mRNA, HLA-A2–restricted” value was 60% and the “percent of epitope-specific T cells expressing TGFB mRNA, HLA-A2–restricted” value is reported as 13%.

Compound `CC[C@H](C)[C@H](N)C(=O)N1CCC[C@H]1C(=O)N[C@@H](CO)C(=O)N[C@@H](CC(=O)O)C(=O)N[C@@H](CC(C)C)C(=O)N[C@@H](CCC(=O)O)C(=O)N[C@@H](CCCNC(=N)N)C(=O)N[C@@H](CCCNC(=N)N)C(=O)N[C@H](C(=O)N[C@@H](CC(C)C)C(=O)O)[C@@H](C)CC` [GAD311–320] (H-IPSDLERRIL-OH) displayed a Kd on HLA-B7.2 of 100 nM.

The values are drawn from PMC3447897 (Diabetes, 2012).
